According to patent US10105367B2, “Therapeutic thiophene-, furan-, and pyridine-fused azolopyrimidin-5-(6h)-ones” (Dart Neuroscience (Cayman) Ltd., priority 2012, dated 2018):

biological target: human PDE1B (Homo sapiens (Human), UniProt Q01064); assay: PDE1B inhibitory assay (IMAP TR-FRET); details: PDE1B pIC50, negative log of half-maximal molar inhibitory concentration; 200 nM FAM-cAMP, Calmodulin, CaCl2
Method: PDE1B inhibition was determined by an IMAP TR-FRET assay.
After a brief centrifugation, the plates were incubated for 30 minutes at room temperature. The assay was terminated by adding 5 μL IMAP binding reagent/Tb complex (Molecular Devices, Sunnyvale, Calif.) to each well.
Plates were incubated 1 hour at room temperature and read on a Viewlux multimode plate reader (Perkin Elmer). The instrument was set to excite using the DUG11 filter and measure using 490/10 nm and 520/10 nm filters. Ratios of acceptor and donor were then calculated.
For IC50 calculations, the values of % efficacy versus a series of compound concentrations were then plotted using non-linear regression analysis of sigmoidal dose-response curves generated with the equation Y=B+(T−B)/1+10((Log EC50−X)×Hill Slope), where Y=percent activity, B=minimum percent efficacy, T=maximum percent efficacy, X=logarithm of compound and Hill Slope=slope factor or Hill coefficient. The IC50 value was determined by the concentration causing a half-maximal percent efficacy.

Row | Compound | IC50
1 | COc1ccc(Cn2c(=O)n3ncnc3c3nc(CN4C[C@@H](C)O[C@@H](C)C4)cnc32)cc1 [Example 231] | 100 to 1000 nM
2 | Cc1csc2c1c1ncnn1c(=O)n2Cc1cccc(Cl)c1 [Example 11] | 100 to 1000 nM
3 | Cc1csc2c1c1ncnn1c(=O)n2Cc1ccccc1Cl [Example 10] | 1000 to 10000 nM
4 | COc1ccc(Cn2c(=O)n3ncnc3c3cc(N4CCN(S(C)(=O)=O)CC4)cnc32)cc1 [Example 203] | 100 to 1000 nM
5 | COc1ccc(Cn2c(=O)n3ncnc3c3c4c(sc32)CN(Cc2ccc3c(c2)OC(F)(F)O3)CC4)cc1 [Example 114] | 100 to 1000 nM
6 | O=c1n(Cc2ccccc2Cl)c2sccc2c2ncnn12 [Example 1, 6-(2-Chlorobenzyl)thieno[3,2-e][1,2,4]triazolo[1,5-c]pyrimidin-5(6H)-one] | 1000 to 10000 nM
7 | COc1ccc(Cn2c(=O)n3ncnc3c3cc(CN4CCN(C)CC4)cnc32)cc1 [Example 221] | 100 to 1000 nM
8 | COc1ccc(Cn2c(=O)n3ncnc3c3cc(CN4CCCCC4)cnc32)cc1 [Example 206] | 100 to 1000 nM
9 | COCCN1CCN(c2cnc3c(c2)c2ncnn2c(=O)n3Cc2ccc(OC)cc2)CC1 [Example 197] | 100 to 1000 nM
10 | O=c1n(Cc2ccc(-c3ccccc3)cc2)c2sc3c(c2c2ncnn12)CCCC3 [Example 86] | 1000 to 10000 nM
11 | Cc1sc2c(c1C)c1ncnn1c(=O)n2Cc1ccc(Cl)cc1 [Example 26] | 100 to 1000 nM
12 | C[C@@H]1CN(Cc2cnc3c(c2)c2ncnn2c(=O)n3Cc2ccc(F)c(Cl)c2)C[C@H](C)O1 [Example 294] | 100 to 1000 nM
13 | O=c1n(Cc2ccccc2)c2sc3c(c2c2ncnn12)CCCC3 [Example 84] | 100 to 1000 nM
14 | COc1ccc(Cn2c(=O)n3ncnc3c3c4c(sc32)N(Cc2ccc(Cl)cc2)CCC4)cc1 [Example 152] | 100 to 1000 nM
15 | COc1ccc(Cn2c(=O)n3ncnc3c3cc(Br)cnc32)cc1 [Example 185, 9-Bromo-6-(4-methoxybenzyl)pyrido[3,2-e][1,2,4]triazolo[1,5-c]pyrimidin-5(6H)-one] | 100 to 1000 nM
16 | COc1ccc(Cn2c(=O)n3ncnc3c3nc(Br)cnc32)cc1 [Example 188] | 100 to 1000 nM
17 | COc1ccc(Cn2c(=O)n3ncnc3c3ncc(CN4CCOCC4)cc32)cc1 [Example 241] | 1000 to 10000 nM
18 | O=c1n(Cc2cccc(Cl)c2)c2sccc2c2ncnn12 [Example 2] | 1000 to 10000 nM
19 | COc1ccc(Cn2c(=O)n3ncnc3c3ccsc32)cc1 [Example 27] | 100 to 1000 nM
20 | O=c1n(Cc2ccc(C(F)(F)F)cc2)c2sc3c(c2c2ncnn12)CCOC3 [Example 89] | 1000 to 10000 nM
21 | O=c1n(Cc2ccc(Cl)cc2)c2sc(Cc3ccccc3)cc2c2ncnn12 [Example 22] | 100 to 1000 nM

Row | Compound | IC50
22 | COc1ccc(Cn2c(=O)n3ncnc3c3cc(CCNC4CCOCC4)cnc32)cc1 [Example 212, 6-(4-Methoxybenzyl)-9-(2-(tetrahydro-2H-pyran-4-ylamino)ethyl)pyrido[3,2-e][1,2,4]triazolo[1,5-c]pyrimidin-5(6H)-one] | 1000 to 10000 nM
23 | O=c1n(Cc2ccccc2)c2sc(Cc3ccccc3)cc2c2ncnn12 [Example 17] | 100 to 1000 nM
24 | Cc1oc2c(c1C)c1ncnn1c(=O)n2Cc1ccc(Cl)cc1 [Example 79, 6-(4-Chlorobenzyl)-8,9-dimethylfuro[3,2-e][1,2,4]triazolo[1,5-c]pyrimidin-5(6H)-one] | 100 to 1000 nM
25 | O=c1n(Cc2ccc(Cl)cc2)c2sc3c(c2c2ncnn12)CCNC3 [Example 99, 6-(4-Chlorobenzyl)-8,9,10,11-tetrahydropyrido[4′,3′:4,5]thieno[3,2-e][1,2,4]triazolo[1,5-c]pyrimidin-5(6H)-one] | 1000 to 10000 nM
26 | COc1ccc(Cn2c(=O)n3ncnc3c3cc(CN4C[C@@H](C)N[C@@H](C)C4)cnc32)cc1 [Example 250] | 1000 to 10000 nM
27 | COCCN1CCN(Cc2cnc3c(c2)c2ncnn2c(=O)n3Cc2ccc(OC)cc2)CC1 [Example 238] | 1000 to 10000 nM
28 | O=c1n(Cc2ccc(OC(F)(F)F)cc2)c2sc3c(c2c2ncnn12)CCOC3 [Example 96] | 1000 to 10000 nM
29 | O=c1n(Cc2ccc(Cl)cc2F)c2sc3c(c2c2ncnn12)CCOC3 [Example 94] | 100 to 1000 nM
30 | COc1c(F)cc(Cn2c(=O)n3ncnc3c3cc(CN4C[C@@H](C)O[C@@H](C)C4)cnc32)cc1F [Example 291] | 100 to 1000 nM
31 | COc1ccc(Cn2c(=O)n3ncnc3c3ncc(Br)cc32)cc1 [Example 186] | 1000 to 10000 nM
32 | COc1ccc(Cn2c(=O)n3ncnc3c3c4c(sc32)N(Cc2ccc(Cl)cc2)CCC4)cc1OC [Example 153] | 1000 to 10000 nM
33 | COc1ccc(Cn2c(=O)n3ncnc3c3cc(-n4nc(C)ccc4=O)cnc32)cc1 [Example 192, 6-(4-Methoxybenzyl)-9-(3-methyl-6-oxopyridazin-1(6H)-yl)pyrido[3,2-e][1,2,4]triazolo[1,5-c]pyrimidin-5(6H)-one] | 100 to 1000 nM
34 | COc1ccc(Cn2c(=O)n3ncnc3c3cc(CN4C[C@@H](C)OC[C@H]4C)cnc32)cc1 [Example 248] | 100 to 1000 nM
35 | COc1ccc(Cn2c(=O)n3ncnc3c3ccc(CN4CCN(S(C)(=O)=O)CC4)nc32)cc1 [Example 261] | 100 to 1000 nM
36 | Cc1cc2c(s1)n(Cc1ccc(Cl)cc1)c(=O)n1ncnc21 [Example 15] | 100 to 1000 nM
37 | CC1(C)Cc2c(sc3c2c2ncnn2c(=O)n3Cc2ccc(Cl)cc2)CO1 [Example 83] | 100 to 1000 nM
38 | COc1ccc(Cn2c(=O)n3ncnc3c3ncc(CN4CCCCC4)cc32)cc1 [Example 242] | 1000 to 10000 nM
39 | O=c1n(Cc2ccc(-c3ccccc3)cc2)c2sc(Cc3ccccc3)cc2c2ncnn12 [Example 18] | 1000 to 10000 nM
40 | O=c1n(Cc2ccccc2Cl)c2sc(Cc3ccccc3)cc2c2ncnn12 [Example 8] | 100 to 1000 nM
41 | COc1ccc(Cn2c(=O)n3ncnc3c3ccc(CN(C)C4CC4)nc32)cc1 [Example 260] | 100 to 1000 nM

same assay, conditions: negative log of half-maximal molar inhibitory concentration; 200 nM FAM-cAMP, Calmodulin, CaCl2

Row | Compound | PDE1B pIC50
42 | COc1ccc(Cn2c(=O)n3ncnc3c3c4c(sc32)CN(C(=O)C2CC2)CC4)c(F)c1 [Example 168] | >7
43 | COc1ccc(Cn2c(=O)n3ncnc3c3c(C)c(CN4CCN(C(C)=O)CC4)sc32)cc1 [Example 51] | >7
44 | COc1ccc(Cn2c(=O)n3ncnc3c3cc(CN4CCCOCC4)sc32)cc1 [Example 29, 8-((1,4-Oxazepan-4-yl)methyl)-6-(4-methoxybenzyl)thieno[3,2-e][1,2,4]triazolo[1,5-c]pyrimidin-5(6H)-one] | >7
45 | C[C@@H]1CN(Cc2cnc3c(c2)c2ncnn2c(=O)n3Cc2ccc(-n3cccn3)cc2)C[C@H](C)O1 [Example 289] | <5
46 | C[C@@H]1CN(Cc2cnc3c(c2)c2ncnn2c(=O)n3Cc2ccc(C#N)cc2)C[C@H](C)O1 [Example 279] | <5
47 | C[C@@H]1CN(Cc2cnc3c(c2)c2ncnn2c(=O)n3Cc2ccccc2OC(F)F)C[C@H](C)O1 [Example 297] | <5
48 | COc1ccc(Cn2c(=O)n3ncnc3c3c4c(sc32)CN(Cc2ccccn2)CC4)c(F)c1 [Example 139] | >7
49 | COc1ccc(Cn2c(=O)n3ncnc3c3c4c(sc32)CN(CC2COCCO2)CC4)cc1 (stereo not drawn) [Example 125] | >7
50 | COc1ccc(Cn2c(=O)n3ncnc3c3c4c(sc32)N(C(=O)C2CC2)CCC4)cc1 [Example 174] | >7
51 | COc1ccc(Cn2c(=O)n3ncnc3c3cc(CN4C[C@H](C)OC[C@@H]4C)cnc32)cc1 [Example 247] | >7
52 | C[C@@H]1CN(Cc2cnc3c(c2)c2ncnn2c(=O)n3Cc2ccc(C(C)(C)C)cc2)C[C@H](C)O1 [Example 280] | <5
53 | COc1ccc(Cn2c(=O)n3ncnc3c3cc(C(F)CN4C[C@@H](C)O[C@@H](C)C4)cnc32)cc1 (stereo partly drawn) [Example 270] | >7
54 | COc1ccc(Cn2c(=O)n3ncnc3c3c4c(sc32)CN(CC(C)(C)C)CC4)cc1 [Example 115] | >7
55 | O=c1n(Cc2ccc(Cl)cc2F)c2sc3c(c2c2ncnn12)CCN(Cc1ncccn1)C3 [Example 132] | >7
56 | COc1ccc(Cn2c(=O)n3ncnc3c3c(C)c(CN4CCN5CCC[C@H]5C4)sc32)cc1 [Example 75] | >7
57 | COc1ccc(Cn2c(=O)n3ncnc3c3c(C)c(CN4CCOC(C)(C)C4)sc32)cc1 [Example 69] | >7

Row | Compound | PDE1B pIC50
58 | COc1cc(F)c(Cn2c(=O)n3ncnc3c3cc(CN4C[C@@H](C)O[C@@H](C)C4)cnc32)c(F)c1 [Example 287] | >7
59 | COc1ccc(Cn2c(=O)n3ncnc3c3cc(CN4CC(C)OCC4C)cnc32)cc1 (stereo not drawn) [Example 225] | >7
60 | COc1ccc(Cn2c(=O)n3ncnc3c3c(C)c(CN(CCO)Cc4ccccc4)sc32)cc1 [Example 48] | >7
61 | COc1ccc(Cn2c(=O)n3ncnc3c3c4c(sc32)CN(C(=O)[C@@H]2CCOC2)CC4)cc1 [Example 169] | >7
62 | COc1ccc(Cn2c(=O)n3ncnc3c3c4c(sc32)CN(CC2CCCCO2)CC4)cc1 (stereo not drawn) [Example 117] | >7
63 | COc1ccc(Cn2c(=O)n3ncnc3c3c(C)c(CN4CCC(O)CC4)sc32)cc1 [Example 47] | >7
64 | COc1ccc(Cn2c(=O)n3ncnc3c3cc(CN4CCC5(CC4)COC5)sc32)cc1 [Example 39] | >7
65 | COc1ccc(Cn2c(=O)n3ncnc3c3c(C)c(CN4C[C@@H](C)O[C@@H](C)C4)sc32)cc1 [Example 55] | >7
66 | COc1ccc(Cn2c(=O)n3ncnc3c3c(C)c(CN4CC5CC4CO5)sc32)cc1 (stereo not drawn) [Example 65] | >7
67 | COc1ccc(Cn2c(=O)n3ncnc3c3cc(CN4CCOC(C)C4)cnc32)cc1 (stereo not drawn) [Example 229] | >7
68 | COc1ccc(Cn2c(=O)n3ncnc3c3cc(CN4CCOCC4)sc32)cc1 [Example 31] | >7
69 | C[C@@H]1CN(Cc2cnc3c(c2)c2ncnn2c(=O)n3Cc2ccccc2SC(F)(F)F)C[C@H](C)O1 [Example 293] | <5
70 | COc1ccc(Cn2c(=O)n3ncnc3c3c4c(sc32)CN(CC2CCOC2)CC4)c(F)c1 (stereo not drawn) [Example 140] | >7
71 | CCC1CN(Cc2cnc3c(c2)c2ncnn2c(=O)n3Cc2ccc(OC)cc2)CCO1 (stereo not drawn) [Example 224] | >7
72 | COc1ccc(Cn2c(=O)n3ncnc3c3c4c(sc32)CN(CC2CCCOC2)CC4(F)F)cc1 (stereo not drawn) [Example 136] | >7
